How the values were obtained:
human lymphocytes = assay: Lymphocyte Proliferation Assay, 3H-thymidine incorporation (Example 13); conditions: Homo sapiens, Lymphocyte, read-out: inhibition of lymphocytes (lower figure)
P. falciparum = P. falciparum growth in vitro (Table 14.1, strain not stated); type: cell-based; conditions: Plasmodium falciparum, read-out: inhibition of malaria parasites (middle figure) (converted)
Description: The P. falciparum experimental setup was as described in Example 15.
Testing of the effect of drugs and serum on the in vitro growth of the parasites. The experiments in which compounds were tested for their ability to inhibit parasite growth were performed by a modification of the method originally described by Jensen et al. (1982). Fifty μl of parasitized erythrocytes (parasitemia approximately 1%) in a concentration of 5×10^8/ml and 50 μl of RPMI medium containing different concentrations of the test compound was added to each well of a 96 well flat-bottomed microtiter plate (Nunc). The cultures were then incubated for 48 hours, 24 hours before termination of the culture adding 20 μl of 3-H-hypoxanthine (40 uCi/ml) (New England Nuclear, Boston, Mass., USA) was added to each well. The cultures were then harvested onto glass fiber filters using a Skatron cell harvester (Skatron, Lierbyen, Norway), and the incorporation of 3-H-hypoxanthine into the DNA of dividing parasites was determined by liquid scintillation spectrometry.

L. major promastigotes = L. major promastigotes from 4-days cultures, 3H-thymidine uptake (Examples 5, 14); type: cell-based, Leishmania major; conditions: Leishmania major, Table 14.1, read-out: percentage inhibition of promastigotes (upper figure)
Description: Parasite cultures. The same parasite culture as described in Example 4. Promastigotes were harvested on day 4 of the culture and used for the parasiticidal assay.
Effect on promastigotes. […] Following incubation, […] of ^3H-thymidine was added to each well and further incubated for 18 hrs. Promastigotes were then harvested on filter paper by means of a cell harvester (Skatron, Lierbyen, Norway), extensively washed with distilled water and counted in a scintillation counter (Minaxi Ti-Carb 4000, United Technologies, Packard, USA).
L. major promastigotes. The L. major promastigotes were prepared as described in Example 4 and harvested after 4 days.

[1] = tested on: chloroquine resistant P. falciparum DD2 strain; assay: In vitro growth of P. falciparum DD2, 3H-hypoxanthine uptake (Example 15); type: cell-based, Plasmodium falciparum; conditions: title: percentage inhibition of 3H-hypoxanthine uptake
P. yoelii strain YM = P. yoelii strain YM infection in mice, parasitemia and mortality (Example 16); type: in vivo, BALB/c mice; conditions: Table 16.11; for % parasitemia (mean ± SEM): 3 h after infection, D + 1 to D + 5
[2] = D + 6, i.p. 20 mg/kg twice daily
[3] = D + 6, i.p. 30 mg/kg twice daily
[4] = D + 8, i.p. 20 mg/kg twice daily
[5] = D + 8, i.p. 30 mg/kg twice daily
[6] = D + 10, i.p. 20 mg/kg twice daily
[7] = D + 10, i.p. 30 mg/kg twice daily to D + 5
[8] = D + 12, i.p. 20 mg/kg twice daily
[9] = D + 14, i.p. 20 mg/kg twice daily to D + 5
[10] = D + 14, i.p. 20 mg/kg twice daily
[11] = D + 16, i.p. 20 mg/kg twice daily to D + 5
[12] = D + 16, i.p. 20 mg/kg twice daily

C=CCOc1ccc(C(=O)/C=C/c2ccc(OC)cc2OC)cc1 [drawing 82]
inhibition at 0.5 µg/mL (human lymphocytes): 0%
inhibition at 1 µg/mL (human lymphocytes): 1.7%
inhibition at 5 µg/mL (human lymphocytes): 5.9%
inhibition at 10 µg/mL (human lymphocytes): 5.5%
inhibition at 0.5 µg/mL (P. falciparum; 0.5 μg/ml): 31.1%
inhibition at 1 µg/mL (P. falciparum; 1 μg/ml): 36.5%
inhibition at 5 µg/mL (P. falciparum; 5 μg/ml): 74.4%
inhibition at 10 µg/mL (P. falciparum; 10 μg/ml): 97.3%
inhibition at 0.5 µg/mL (L. major promastigotes; 0.5 μg/ml): 35.4%
inhibition at 1 µg/mL (L. major promastigotes; 1 μg/ml): 62.8%
inhibition at 5 µg/mL (L. major promastigotes; 5 μg/ml): 71.4%
inhibition at 10 µg/mL (L. major promastigotes; 10 μg/ml): 85.4%

CCOc1ccc(/C=C/C(=O)c2ccc(O)cc2)c(OCC)c1 [2,4-Diethoxy-4′-hydroxychalcone]
Growth in % of control (mean ± SEM) ([1]; 0.5 μg/ml): 14.5 ± 7.2%
Growth in % of control (mean ± SEM) ([1]; 1 μg/ml): 9 ± 7%
Growth in % of control (mean ± SEM) ([1]; 5 μg/ml): 54.2 ± 10.2%
Growth in % of control (mean ± SEM) ([1]; 10 μg/ml): 86.8 ± 7.3%

COc1cccc(/C=C/C(=O)c2ccc(O)cc2)c1OC [2,3-Dimethoxy-4′-hydroxychalcone]
Growth in % of control (mean ± SEM) ([1]; 0.5 μg/ml): 46 ± 22%
Growth in % of control (mean ± SEM) ([1]; 1 μg/ml): 54.4 ± 22.2%
Growth in % of control (mean ± SEM) ([1]; 5 μg/ml): 53.5 ± 20.1%
Growth in % of control (mean ± SEM) ([1]; 10 μg/ml): 67.6 ± 12.4%

C=CCOc1ccc(C(=O)/C=C/c2ccc(OC)cc2OC)cc1 [2,4-Dimethoxy-4′-allyloxychalcone, 2,4-dimethoxy-4′-prop-2-enyloxychalcone]
Growth in % of control (mean ± SEM) ([1]; 0.5 μg/ml): 29.1 ± 10.8%
Growth in % of control (mean ± SEM) ([1]; 1 μg/ml): 23.6 ± 11.2%
Growth in % of control (mean ± SEM) ([1]; 5 μg/ml): 44.3 ± 10.5%
Growth in % of control (mean ± SEM) ([1]; 10 μg/ml): 75.2 ± 7.8%
% parasitemia (mean ± SEM) (P. yoelii strain YM; [2]): 0.4 ± 0.2%
% parasitemia (mean ± SEM) (P. yoelii strain YM; [3]): 37.4 ± 0.9%
% parasitemia (mean ± SEM) (P. yoelii strain YM; D + 6, i.p. 40 mg/kg twice daily): 55.8 ± 1.5%
% parasitemia (mean ± SEM) (P. yoelii strain YM; [4]): 0.8 ± 0.2%
% parasitemia (mean ± SEM) (P. yoelii strain YM; [5]): 67.2 ± 0.9%
mortality (no. of dead mice/total no. of tested mice) (P. yoelii strain YM; D + 8, i.p. 40 mg/kg twice daily to D + 5): (2/5)
% parasitemia (mean ± SEM) (P. yoelii strain YM; D + 8, i.p. 40 mg/kg twice daily): 83 ± 2.1%
% parasitemia (mean ± SEM) (P. yoelii strain YM; [6]): 14.3 ± 4.0%
mortality (no. of dead mice/total no. of tested mice) (P. yoelii strain YM; [7]): (5/5)
mortality (no. of dead mice/total no. of tested mice) (P. yoelii strain YM; D + 10, i.p. 40 mg/kg twice daily to D + 5): (5/5)
% parasitemia (mean ± SEM) (P. yoelii strain YM; [8]): 32.4 ± 4.0%
mortality (no. of dead mice/total no. of tested mice) (P. yoelii strain YM; [9]): 3/5
% parasitemia (mean ± SEM) (P. yoelii strain YM; [10]): 7%
mortality (no. of dead mice/total no. of tested mice) (P. yoelii strain YM; [11]): 3/5
% parasitemia (mean ± SEM) (P. yoelii strain YM; [12]): 0%

COc1ccc(/C=C/C(=O)c2ccc(O)cc2)c(OC)c1 [2,4-Dimethoxy-4′-hydroxychalcone, 2,4-dimethoxy-4′-hydroxychalcone]
Growth in % of control (mean ± SEM) ([1]; 0.5 μg/ml): 18.6 ± 7.2%
Growth in % of control (mean ± SEM) ([1]; 1 μg/ml): 21.8 ± 7.3%
Growth in % of control (mean ± SEM) ([1]; 5 μg/ml): 46.8 ± 6.6%
Growth in % of control (mean ± SEM) ([1]; 10 μg/ml): 68.0 ± 4.7%
% parasitemia (mean ± SEM) (P. yoelii strain YM; [2]): 4.8 ± 1.5%
% parasitemia (mean ± SEM) (P. yoelii strain YM; [3]): 46.4 ± 2.1%
mortality (no. of dead mice/total no. of tested mice) (P. yoelii strain YM; D + 6, i.p. 40 mg/kg twice daily to D + 5): (5/5)
% parasitemia (mean ± SEM) (P. yoelii strain YM; [4]): 12.4 ± 2.4%
mortality (no. of dead mice/total no. of tested mice) (P. yoelii strain YM; D + 8, i.p. 30 mg/kg twice daily to D + 5): (1/5)
% parasitemia (mean ± SEM) (P. yoelii strain YM; [5]): 70.8 ± 3.5%
% parasitemia (mean ± SEM) (P. yoelii strain YM; [6]): 58.6 ± 14%
mortality (no. of dead mice/total no. of tested mice) (P. yoelii strain YM; [7]): (5/5)
mortality (no. of dead mice/total no. of tested mice) (P. yoelii strain YM; D + 12, i.p. 20 mg/kg twice daily to D + 5): 3/5
% parasitemia (mean ± SEM) (P. yoelii strain YM; [8]): 25%
mortality (no. of dead mice/total no. of tested mice) (P. yoelii strain YM; [9]): 3/5
% parasitemia (mean ± SEM) (P. yoelii strain YM; [10]): 6%
mortality (no. of dead mice/total no. of tested mice) (P. yoelii strain YM; [11]): 3/5
% parasitemia (mean ± SEM) (P. yoelii strain YM; [12]): 0%

COCOc1ccc(C(=O)/C=C/c2ccc(OC)cc2OC)cc1 [2,4-Dimethoxy-4′-methoxymethoxychalcone, 2,4-dimethoxy-4′-methoxymethoxychalcone]
Growth in % of control (mean ± SEM) ([1]; 0.5 μg/ml): 14.0 ± 6.8%
Growth in % of control (mean ± SEM) ([1]; 1 μg/ml): 0 ± 10.9%
Growth in % of control (mean ± SEM) ([1]; 5 μg/ml): 0 ± 10.2%
Growth in % of control (mean ± SEM) ([1]; 10 μg/ml): 40.8 ± 9.3%

COc1ccc(OC)c(/C=C/C(=O)c2ccc(O)cc2)c1 [2,5-Dimethoxy-4′-hydroxychalcone]
Growth in % of control (mean ± SEM) ([1]; 0.5 μg/ml): 14 ± 75%
Growth in % of control (mean ± SEM) ([1]; 1 μg/ml): 21.2 ± 11.1%
Growth in % of control (mean ± SEM) ([1]; 5 μg/ml): 68.4 ± 6.8%
Growth in % of control (mean ± SEM) ([1]; 10 μg/ml): 92.5 ± 2.4%
